Test results from US9783509B2, “Six-membered C-N-linked aryl sulfide derivatives and aryl sulfoxide derivatives as pest conrol agents” (BAYER CROPSCIENCE AKTIENGESELLSCHAFT, priority 2013, dated 2017).
Where two headings read alike, the source gives them in different places.

Key:
[1] = system: southern root-knot nematode (Meloidogyne incognita); assay: Meloidogyne incognita test (sand, lettuce, acetone solvent, 14 days); type: in vivo; conditions: application rate 20 ppm, after 14 days; for pest or weed control at 20 ppm: Meloidogyne incognita, 336 h, read-out: nematicidal efficacy (formation of galls)
Protocol: Meloidogyne incognita Test
Solvent: 125.0 parts by weight of acetone
To produce an appropriate active ingredient formulation, 1 part by weight of active ingredient is mixed with the stated amount of solvent and the concentrate is diluted with water to the desired concentration.
Vessels are filled with sand, active ingredient solution, an egg/larvae suspension of the southern root-knot nematode (Meloidogyne incognita) and lettuce seeds. The lettuce seeds germinate and the plants develop. The galls develop on the roots
After 14 days, the nematicidal efficacy in % is determined by the formation of galls. 100% means that no galls were found; 0% means that the number of galls on the treated plants corresponds to the untreated control.

[2] = system: greenhouse red spider mite (Tetranychus urticae); assay: Tetranychus urticae spray test, OP-resistant (bean leaf discs); type: in vivo; conditions: after 6 days; for pest or weed control at 500 g/ha: Tetranychus urticae, foliar, 144 h, read-out: efficacy (spider mites killed)
Protocol: Tetranychus urticae—Spray Test, OP-Resistant
Solvent: 78.0 parts by weight of acetone • • 1.5 parts by weight of dimethylformamide
Emulsifier: alkylaryl polyglycol ether
To produce an appropriate active ingredient formulation, 1 part by weight of active ingredient is dissolved using the specified parts by weight of solvent and made up with water containing an emulsifier concentration of 1000 ppm until the desired concentration is attained. To produce further test concentrations, the preparation is diluted with emulsifier-containing water.
Discs of bean leaves (Phaseolus vulgaris) infested by all stages of the greenhouse red spider mite (Tetranychus urticae) are sprayed with an active ingredient formulation of the desired concentration.
After 6 days, the efficacy in % is determined. 100% means that all the spider mites have been killed; 0% means that none of the spider mites have been killed.

[3] = log P by reversed-phase HPLC analogously to OECD Guideline 117; type: physicochemical; conditions: for chromatographic logP: reversed-phase C18 HPLC column
Protocol: The log P values were determined analogously to OECD Guideline 117 (EC Directive 92/69/EEC) by HPLC (high-performance liquid chromatography) using reversed-phase columns (C 18), by the following methods:
[a] LC-MS determination in the acidic range is effected at pH 2.7 with 0.1% aqueous formic acid and acetonitrile (containing 0.1% formic acid) as eluents with a linear gradient from 10% acetonitrile to 95% acetonitrile; or with 0.025% aqueous trifluoroacetic acid and acetonitrile (containing 0.025% trifluoroacetic acid) as eluents with a linear gradient from 50% acetonitrile to 80% acetonitrile.
[b] LC-MS determination in the neutral range is effected at pH 7.8 with 0.001 molar aqueous ammonium hydrogencarbonate solution and acetonitrile as eluents; linear gradient from 10% acetonitrile to 95% acetonitrile.
Calibration is effected with solutions of a homologous series of unbranched alkan-2-ones (having 3 to 16 carbon atoms) with known log P values (log P values determined on the basis of the retention times by linear interpolation between two successive alkanones).

[4] = [a] acidic range, pH 2.7, formic acid (or trifluoroacetic acid)/acetonitrile
[5] = [b] neutral range, pH 7.8, ammonium hydrogencarbonate/acetonitrile
[6] = pH 2.7, running text, [a] acidic range, pH 2.7, read-out: log P[a]
[7] = pH 2.7, table column, [a] acidic range, pH 2.7, formic acid (or trifluoroacetic acid)/acetonitrile, read-out: LogP[a]
[8] = pH 7.8, running text, [b] neutral range, pH 7.8, read-out: log P[b]
[9] = pH 7.8, table column, [b] neutral range, pH 7.8, ammonium hydrogencarbonate/acetonitrile, read-out: LogP[b]

Structure (SMILES)	nematicidal efficacy (formation of galls) [1] [%]	efficacy (spider mites killed) ([2]; application rate 500 g/ha) [%]	LogP[a] [3, 4]	LogP[b] [3, 5]	further results
Cc1cc(F)c(-n2ccc(=O)n(C(C)C)c2=O)cc1[S+]([O-])CC(F)(F)F (racemic) [compound 63]	100	90	2.22	2.31	–
CCCn1c(=O)ccn(-c2cc(SCC(F)(F)F)c(C)cc2F)c1=O [compound 78]	100	90	3.13	3.27	–
Cc1cc(F)c(-n2ccc(=O)n(Cc3ccc(F)cc3)c2=O)cc1SCC(F)(F)F [compound 76]	100	90	3.56	3.74	–
Cc1cc(C)c(-n2ccc(=O)n(C)c2=O)cc1SCC(F)(F)F [compound 92]	90	90	2.66	2.72	–
Cc1cc(F)c(-n2ccc(=O)n(C(C)C)c2=O)cc1SCC(F)(F)F [compound 75]	100	–	3.21	3.35	efficacy (spider mites killed) ([2]; application rate 100 g/ha): 90%
Cc1cc(F)c(-n2ncc(=O)n(C(C)C)c2=O)cc1[S+]([O-])CC(F)(F)F (racemic) [compound 30]	100	100	2.64	2.58	–
Cc1ccc(-n2ccc(=O)n(CC#N)c2=O)cc1[S+]([O-])CC(F)(F)F (stereo not shown) [compound 100]	100	90	1.63	1.62	–
O=c1cnn(-c2cc([S+]([O-])CC(F)(F)F)c(Cl)cc2Cl)c(=O)[nH]1 (racemic) [compound 15]	90	–	2.02	1.1	–
Cc1cc(F)c(-n2ccc(=O)n(C)c2=O)cc1SCC(F)(F)F [Ex. No. 53, 1-{2-Fluoro-4-methyl-5-[(2,2,2-trifluoroethyl)sulphanyl]phenyl}-3-methylpyrimidine-2,4(1H,3H)-dione]	–	–	–	–	pest or weed control at 20 ppm [1]: 100%; pest or weed control at 500 g/ha ([2]; application rate 500 g/ha): 90%; chromatographic logP [3, 6]: 2.59; chromatographic logP [3, 7]: 2.53; chromatographic logP [3, 8]: 2.53; chromatographic logP [3, 9]: 2.59
Cc1ccc(-n2ccc(=O)n(C)c2=O)cc1SCC(F)(F)F [Ex. No. 58, 3-Methyl-1-{4-methyl-3-[(2,2,2-trifluoroethyl)sulphanyl]phenyl}pyrimidine-2,4(1H,3H)-dione]	–	–	–	–	pest or weed control at 20 ppm [1]: 100%; pest or weed control at 500 g/ha ([2]; application rate 500 g/ha): 90%; chromatographic logP [3, 6]: 2.48; chromatographic logP [3, 7]: 2.39; chromatographic logP [3, 8]: 2.39; chromatographic logP [3, 9]: 2.48
Cc1cc(F)c(-n2ccc(=O)n(CC(C)C)c2=O)cc1[S+]([O-])CC(F)(F)F (stereo not shown) [compound 69]	100	–	2.48	2.55	–
Cc1ccc(-n2ccc(=O)n(C)c2=O)cc1[S+]([O-])CC(F)(F)F (stereo not shown) [Ex. No. 57, 3-Methyl-1-{4-methyl-3-[(2,2,2-trifluoroethyl)sulphinyl]phenyl}pyrimidine-2,4(1H,3H)-dione]	–	–	–	–	pest or weed control at 20 ppm [1]: 90%; chromatographic logP [3, 6]: 1.5; chromatographic logP [3, 7]: 1.49; chromatographic logP [3, 8]: 1.49; chromatographic logP [3, 9]: 1.5
Cc1ccc(-n2ncc(=O)n(C)c2=O)cc1SCC(F)(F)F [compound 23]	–	100	2.9	2.83	–
Cc1cc(F)c(-n2ccc(=O)[nH]c2=O)cc1SCC(F)(F)F [Ex. No. 55, 1-{2-Fluoro-4-methyl-5-[(2,2,2-trifluoroethyl)sulphanyl]phenyl}pyrimidine-2,4(1H,3H)-dione]	–	–	–	–	pest or weed control at 500 g/ha ([2]; application rate 500 g/ha): 100%; chromatographic logP [3, 6]: 2.13; chromatographic logP [3, 7]: 2.06; chromatographic logP [3, 8]: 2.06; chromatographic logP [3, 9]: 2.13
Cc1cc(C)c([S+]([O-])CC(F)(F)F)cc1-n1ccc(=O)n(C)c1=O (stereo not shown) [compound 93]	–	100	1.68	1.7	–
Cc1cc(F)c(-n2ncc(=O)n(Cc3ccccc3)c2=O)cc1SCC(F)(F)F [compound 42]	–	100	4.04	3.93	–
Cc1cc(C)c(-n2ncc(=O)n(C(C)C)c2=O)cc1SCC(F)(F)F [compound 36]	–	100	3.88	3.81	–
Cc1cc(C)c(-n2ncc(=O)n(C)c2=O)cc1SCC(F)(F)F [Ex. No. 5]	–	100	3.08	–	–
Cc1cc(C)c([S+]([O-])CC(F)(F)F)cc1-n1ccc(=O)[nH]c1=O (stereo not shown) [compound 99]	–	100	1.35	1.38	–
Cc1cc(F)c(-n2ncc(=O)n(C(C)C)c2=O)cc1SCC(F)(F)F [compound 26]	–	100	3.73	3.67	–
Cc1cc(C)c([S+]([O-])CC(F)(F)F)cc1-n1ncc(=O)n(Cc2ccccc2)c1=O (racemic) [compound 52]	–	–	3.06	3.00	efficacy (spider mites killed) ([2]; application rate 100 g/ha): 90%
CCn1c(=O)cnn(-c2cc(SCC(F)(F)F)c(C)cc2C)c1=O [compound 33]	–	100	3.45	3.38	–
Cc1cc(C)c(-n2ccc(=O)n(CC(F)(F)F)c2=O)cc1SCC(F)(F)F [compound 94]	–	100	3.39	3.49	–
Cc1cc(C)c(-n2ncc(=O)n(CC(C)C)c2=O)cc1SCC(F)(F)F [compound 41]	–	90	4.18	4.1	–
O=c1cnn(-c2cc(SCC(F)(F)F)c(Cl)cc2Cl)c(=O)[nH]1 [compound 8]	90	–	2.72	1.4	–
